Where two headings read alike, the source gives them in different places.
Columns and labels:
Assay type in all cases: cell-based
K. pneumoniae = tested on: K. pneumoniae
A. calcoaceticus = tested on: A. calcoaceticus
E. cloacae = E. cloacae strain ECL007
E. faecalis = tested on: E. faecalis
S. marcescens = tested on: S. marcescens
S. aureus = tested on: S. aureus
P. aeruginosa = tested on: P. aeruginosa
E. coli = tested on: E. coli
S. maltophilia = tested on: S. maltophilia
E. faecium = tested on: E. faecium
S. epidermidis = S. epidermidis strain SE010
[1] = tested on: microorganisms with acquired resistance; assay: microbe, parasite or virus in culture
bacterial isolates = assay: microbe, parasite or virus in culture
[2] = tested on: inherently resistant microorganisms; assay: microbe, parasite or virus in culture
[3] = peptide + Amikacin, P. aeruginosa PA022
[4] = peptide + Gentamicin, A. baumannii ABI001
[5] = peptide + Gentamicin, A. baumannii ABI002
[6] = peptide + Gentamicin, A. calcoaceticus AC001
[7] = peptide + Gentamicin, P. aeruginosa PA041
[8] = peptide + Gentamicin, S. maltophilia SMA019

Sequence: ILKWPWWPWRRK [MBI 11B3CN]
- MIC (K. pneumoniae; K. pneumoniae strain KP002): 64 µg/mL
- MIC (A. calcoaceticus; A. calcoaceticus strain AC001): 64 µg/mL
- MIC (E. cloacae): >128 µg/mL
- MIC (E. faecalis; E. faecalis strain EFS001): 16 µg/mL
- MIC (S. marcescens; S. marcescens strain SMS004): >128 µg/mL
- MIC (S. aureus; S. aureus strain SA010): 4 µg/mL
- MIC (P. aeruginosa; P. aeruginosa strain PA003): >128 µg/mL
- MIC (E. coli; E. coli strain ECO002): 16 µg/mL
- MIC (S. maltophilia; S. maltophilia strain SMA002): 32 µg/mL
- MIC (E. faecium; E. faecium strain EFM001): 8 µg/mL

Sequence: ILRRWPWWPWRK [MBI 11B2CN]
- MIC (K. pneumoniae; K. pneumoniae strain KP002): 64 µg/mL
- MIC (A. calcoaceticus; A. calcoaceticus strain AC001): 64 µg/mL
- MIC (E. cloacae): >128 µg/mL
- MIC (E. faecalis; E. faecalis strain EFS004): 8 µg/mL
- MIC (S. marcescens; S. marcescens strain SMS004): >128 µg/mL
- MIC (S. aureus; S. aureus strain SA005): 2 µg/mL
- MIC (P. aeruginosa; P. aeruginosa strain PA003): >128 µg/mL
- MIC (E. coli; E. coli strain ECO003): 16 µg/mL
- MIC (S. maltophilia; S. maltophilia strain SMA002): 64 µg/mL
- MIC (E. faecium; E. faecium strain EFM001): 8 µg/mL

Sequence: ILKKWPWWPWRPMILKKAGS [MBI 11D5CN]
- MIC (K. pneumoniae; K. pneumoniae strain KP001): >64 µg/mL
- MIC (A. calcoaceticus; A. calcoaceticus strain AC001): >64 µg/mL
- MIC (E. cloacae): >64 µg/mL
- MIC (E. faecalis; E. faecalis strain EFS002): 16 µg/mL
- MIC (S. marcescens; S. marcescens strain SMS004): >64 µg/mL
- MIC (S. aureus; S. aureus strain SA005): 8 µg/mL
- MIC (P. aeruginosa; P. aeruginosa strain PA003): >64 µg/mL
- MIC (E. coli; E. coli strain ECO003): 64 µg/mL
- MIC (S. maltophilia; S. maltophilia strain SMA001): 64 µg/mL
- MIC (E. faecium; E. faecium strain EFM003): 1 µg/mL

Sequence: ILRWPWWPWRRKIMILKKAGS [MBI 11B16CN]
- MIC (K. pneumoniae; K. pneumoniae strain KP001): 16 µg/mL
- MIC (S. epidermidis): 4 µg/mL
- MIC (A. calcoaceticus; A. calcoaceticus strain AC002): 4 µg/mL
- MIC (E. cloacae): >128 µg/mL
- MIC (E. faecalis; E. faecalis strain EFS001): 2 µg/mL
- MIC (S. marcescens; S. marcescens strain SMS003): >128 µg/mL
- Gentamicin MIC + Peptide ([1]; A. baumannii ABI001): 4 µg/mL
- Peptide MIC + Gentamicin ([1]; A. baumannii ABI001): 4 µg/mL
- Peptide MIC Alone ([1]; A. baumannii ABI001, Gentamicin section): 16 µg/mL
- Gentamicin MIC + Peptide ([1]; A. baumannii ABI002): 2 µg/mL
- Peptide MIC + Gentamicin ([1]; A. baumannii ABI002): 4 µg/mL
- Peptide MIC Alone ([1]; A. baumannii ABI002, Gentamicin section): 16 µg/mL
- Gentamicin MIC + Peptide ([1]; A. calcoaceticus AC001): 1 µg/mL
- Peptide MIC + Gentamicin ([1]; A. calcoaceticus AC001): 4 µg/mL
- Peptide MIC Alone ([1]; A. calcoaceticus AC001, Gentamicin section): 32 µg/mL
- Amikacin MIC + Peptide ([1]; P. aeruginosa PA022): 8 µg/mL
- Peptide MIC + Amikacin ([1]; P. aeruginosa PA022): 16 µg/mL
- Peptide MIC Alone ([1]; P. aeruginosa PA022, Amikacin section): 64 µg/mL
- Gentamicin MIC + Peptide ([1]; P. aeruginosa PA023): 4 µg/mL
- Peptide MIC + Gentamicin ([1]; P. aeruginosa PA023): 16 µg/mL
- Peptide MIC Alone ([1]; P. aeruginosa PA023, Gentamicin section): >128 µg/mL
- Gentamicin MIC + Peptide ([1]; P. aeruginosa PA041): 2 µg/mL
- Peptide MIC + Gentamicin ([1]; P. aeruginosa PA041): 16 µg/mL
- Peptide MIC Alone ([1]; P. aeruginosa PA041, Gentamicin section): >128 µg/mL
- Gentamicin MIC + Peptide ([1]; S. maltophilia SMA017): 2 µg/mL
- Peptide MIC + Gentamicin ([1]; S. maltophilia SMA017): 16 µg/mL
- Peptide MIC Alone ([1]; S. maltophilia SMA017, Gentamicin section): 128 µg/mL
- Gentamicin MIC + Peptide ([1]; S. maltophilia SMA019): 0.5 µg/mL
- Peptide MIC + Gentamicin ([1]; S. maltophilia SMA019): 16 µg/mL
- Peptide MIC Alone ([1]; S. maltophilia SMA019, Gentamicin section): 32 µg/mL
- FIC [1, 3]: 0.38
- FIC [1, 4]: 0.31
- FIC [1, 5]: 0.31
- FIC [1, 6]: 0.25
- FIC ([1]; peptide + Gentamicin, P. aeruginosa PA023): 0.56
- FIC [1, 7]: 0.31
- FIC ([1]; peptide + Gentamicin, S. maltophilia SMA017): 0.16
- FIC [1, 8]: 0.51
- MIC (S. aureus; S. aureus strain SA093): 2 µg/mL
- Peptide MIC Alone (bacterial isolates; 1. Amikacin, A. baumannii ABI001): 32 µg/mL
- Peptide MIC Alone (bacterial isolates; 1. Amikacin, A. baumannii ABI003): 16 µg/mL
- Peptide MIC Alone (bacterial isolates; 1. Amikacin, E. faecalis EFS008): 8 µg/mL
- Peptide MIC Alone (bacterial isolates; 1. Amikacin, P. aeruginosa PA022): 64 µg/mL
- Peptide MIC Alone (bacterial isolates; 1. Amikacin, P. aeruginosa PA037): >128 µg/mL
- Peptide MIC Alone (bacterial isolates; 1. Amikacin, S. maltophilia SMA018): 32 µg/mL
- Peptide MIC Alone (bacterial isolates; 1. Amikacin, S. maltophilia SMA022): >128 µg/mL
- Peptide MIC Alone (bacterial isolates; 4. Gentamicin, A. baumannii ABI001): 16 µg/mL
- Peptide MIC Alone (bacterial isolates; 4. Gentamicin, A. baumannii ABI002): 16 µg/mL
- Peptide MIC Alone (bacterial isolates; 4. Gentamicin, A. calcoaceticus AC001): 32 µg/mL
- Peptide MIC Alone (bacterial isolates; 4. Gentamicin, E. faecalis EFS008): 4 µg/mL
- Peptide MIC Alone (bacterial isolates; 4. Gentamicin, P. aeruginosa PA022): 64 µg/mL
- Peptide MIC Alone (bacterial isolates; 4. Gentamicin, P. aeruginosa PA041): >128 µg/mL
- Peptide MIC Alone (bacterial isolates; 4. Gentamicin, S. aureus SA014 MRSA): 8 µg/mL
- Peptide MIC Alone (bacterial isolates; 4. Gentamicin, S. maltophilia SMA016): >128 µg/mL
- Peptide MIC Alone (bacterial isolates; 4. Gentamicin, S. maltophilia SMA019): 32 µg/mL
- Amikacin MIC + Peptide (bacterial isolates; A. baumannii ABI001): 0.125 µg/mL
- Gentamicin MIC + Peptide (bacterial isolates; A. baumannii ABI001): 4 µg/mL
- Peptide MIC + Amikacin (bacterial isolates; A. baumannii ABI001): 16 µg/mL
- Peptide MIC + Gentamicin (bacterial isolates; A. baumannii ABI001): 4 µg/mL
- Gentamicin MIC + Peptide (bacterial isolates; A. baumannii ABI002): 2 µg/mL
- Peptide MIC + Gentamicin (bacterial isolates; A. baumannii ABI002): 4 µg/mL
- Amikacin MIC + Peptide (bacterial isolates; A. baumannii ABI003): 0.5 µg/mL
- Peptide MIC + Amikacin (bacterial isolates; A. baumannii ABI003): 8 µg/mL
- Gentamicin MIC + Peptide (bacterial isolates; A. calcoaceticus AC001): 1 µg/mL
- Peptide MIC + Gentamicin (bacterial isolates; A. calcoaceticus AC001): 4 µg/mL
- Amikacin MIC + Peptide (bacterial isolates; E. faecalis EFS008): 8 µg/mL
- Gentamicin MIC + Peptide (bacterial isolates; E. faecalis EFS008): 64 µg/mL
- Peptide MIC + Amikacin (bacterial isolates; E. faecalis EFS008): 0.25 µg/mL
- Peptide MIC + Gentamicin (bacterial isolates; E. faecalis EFS008): 0.5 µg/mL
- Amikacin MIC + Peptide (bacterial isolates; P. aeruginosa PA022): 8 µg/mL
- Gentamicin MIC + Peptide (bacterial isolates; P. aeruginosa PA022): 8 µg/mL
- Peptide MIC + Amikacin (bacterial isolates; P. aeruginosa PA022): 16 µg/mL
- Peptide MIC + Gentamicin (bacterial isolates; P. aeruginosa PA022): 8 µg/mL
- Amikacin MIC + Peptide (bacterial isolates; P. aeruginosa PA037): 2 µg/mL
- Peptide MIC + Amikacin (bacterial isolates; P. aeruginosa PA037): 32 µg/mL
- Gentamicin MIC + Peptide (bacterial isolates; P. aeruginosa PA041): 2 µg/mL
- Peptide MIC + Gentamicin (bacterial isolates; P. aeruginosa PA041): 16 µg/mL
- Gentamicin MIC + Peptide (bacterial isolates; S. aureus SA014 MRSA): 1 µg/mL
- Peptide MIC + Gentamicin (bacterial isolates; S. aureus SA014 MRSA): 4 µg/mL
- Gentamicin MIC + Peptide (bacterial isolates; S. maltophilia SMA016): 64 µg/mL
- Peptide MIC + Gentamicin (bacterial isolates; S. maltophilia SMA016): 16 µg/mL
- Amikacin MIC + Peptide (bacterial isolates; S. maltophilia SMA018): 8 µg/mL
- Peptide MIC + Amikacin (bacterial isolates; S. maltophilia SMA018): 8 µg/mL
- Gentamicin MIC + Peptide (bacterial isolates; S. maltophilia SMA019): 8 µg/mL
- Peptide MIC + Gentamicin (bacterial isolates; S. maltophilia SMA019): 8 µg/mL
- Amikacin MIC + Peptide (bacterial isolates; S. maltophilia SMA022): 8 µg/mL
- Peptide MIC + Amikacin (bacterial isolates; S. maltophilia SMA022): 16 µg/mL
- FIC (bacterial isolates; peptide + Amikacin, A. baumannii ABI001): 0.50
- FIC (bacterial isolates; peptide + Amikacin, A. baumannii ABI003): 0.53
- FIC (bacterial isolates; peptide + Amikacin, E. faecalis EFS008): 0.28
- FIC (bacterial isolates; [3]): 0.38
- FIC (bacterial isolates; peptide + Amikacin, P. aeruginosa PA037): 0.25
- FIC (bacterial isolates; peptide + Amikacin, S. maltophilia SMA018): 0.31
- FIC (bacterial isolates; peptide + Amikacin, S. maltophilia SMA022): 0.09
- FIC (bacterial isolates; [4]): 0.31
- FIC (bacterial isolates; [5]): 0.31
- FIC (bacterial isolates; [6]): 0.25
- FIC (bacterial isolates; peptide + Gentamicin, E. faecalis EFS008): 0.38
- FIC (bacterial isolates; peptide + Gentamicin, P. aeruginosa PA022): 0.38
- FIC (bacterial isolates; [7]): 0.31
- FIC (bacterial isolates; peptide + Gentamicin, S. aureus SA014 MRSA): 0.53
- FIC (bacterial isolates; peptide + Gentamicin, S. maltophilia SMA016): 0.31
- FIC (bacterial isolates; [8]): 0.38
- MIC (P. aeruginosa; P. aeruginosa strain PA004): >128 µg/mL
- MIC (E. coli; E. coli strain ECO005): 16 µg/mL
- MIC (S. maltophilia; S. maltophilia strain SMA002): 32 µg/mL
- Peptide MIC + Amikacin ([2]; A. baumannii): 4 µg/mL
- Peptide MIC Alone ([2]; A. baumannii, Amikacin section): 32 µg/mL
- Peptide MIC + Amikacin ([2]; S. aureus MRSA): 4 µg/mL
- Peptide MIC + Gentamicin ([2]; S. aureus MRSA): 4 µg/mL
- Peptide MIC Alone ([2]; S. aureus MRSA, Amikacin section): 8 µg/mL
- Peptide MIC Alone ([2]; S. aureus MRSA, Gentamicin section): 8 µg/mL
- FIC ([2]; peptide + Amikacin, A. baumannii): 0.25
- FIC ([2]; peptide + Gentamicin, S. aureus MRSA): 0.53

Sequence: ILKKNPNNPNRRK [MBI 11M8]
- MIC (E. faecalis; E. faecalis EFS002): 32 µg/mL
- MIC (S. aureus; S. aureus SA008): 32 µg/mL
- MIC (E. faecium; E. faecium EFM002): 32 µg/mL

Reference: patent US20020035061A1, “COMPOSITIONS AND METHODS FOR TREATING INFECTIONS USING CATIONIC PEPTIDES ALONE OR IN COMBINATION WITH ANTIBIOTICS” (priority 1996, published 2002)
